Legend:
[1] = tested on: platelets; test: Whole cell tyrosine phosphorylation and functional responses of platelets stimulated by rhodocytin; format: cell-based; conditions: data not shown
[2] = tested on: Syk, Btk, LAT, SLP-76, Vav1, Vav3, PLCγ2; test: Tyrosine phosphorylation of signaling proteins of the GPVI cascade in platelets; format: cell-based, human; conditions: PP2 present; not shown
[3] = tested on: CLEC-2; test: Precipitation of CLEC-2 from platelet lysates by GST fusion protein of tandem Syk SH2 domains; format: cell-based, human; conditions: 30 μM PP2 pretreatment, 50 nM rhodocytin
Description: (A) Washed murine platelets were stimulated with 50 nM rhodocytin for the indicated times. Whole cell lysates or immunoprecipitates with antibodies against PLCγ2, Vav1, or Vav3 were separated by SDS-PAGE and western blotted with the indicated antibodies. (B) Control or Syk-deficient platelets were stimulated with 30 nM rhodocytin and platelet aggregation was monitored using an aggregometer. (C) (i)(ii) Washed human platelets, pretreated with or without 30 μM PP2, were stimulated with 50 nM rhodocytin or 10 μg/ml of convulxin for the indicated times. Reactions were terminated by addition of an equal volume of 2× lysis buffer. […] The resultant supernatant was incubated with 40 μl of glutathione beads associated with GST fusion protein containing tandem Syk SH2 domains. Precipitated proteins were separated by SDS-PAGE and western blotted with an antibody to CLEC-2. (iii) CLEC-2 associated with 10 μg of CLEC-2 phospho-YXXL-containing peptide plus avidin-sepharose was detected by CLEC-2 antibody. The data are representative of 2-5 experiments.

[4] = tested on: CLEC-2; test: CLEC-2 tyrosine phosphorylation in human platelets (immunoprecipitation and western blotting); format: cell-based; conditions: for block of rhodocytin-induced tyrosine phosphorylation of CLEC-2: 30 μM inhibitor pretreatment, 50 nM rhodocytin; for tyrosine phosphorylation of CLEC-2: 50 μg/ml collagen or 100 μM SFLLRN, time course of up to 5 min
Description: (§1) Washed human platelets (1×10^9/ml) pretreated with 1 mM GRGDS (SEQ ID NO: 5) peptide or washed murine platelets (2×10^8/ml) pretreated with 10 μM lotrafiban to inhibit platelet aggregation were stimulated with 50 nM rhodocytin, 100 μM SFLLRN (SEQ ID NO: 6), or 50 μg/ml of collagen. […] Reactions were terminated by addition of 2× ice-cold lysis buffer. Platelet lysates were precleared and detergent-insoluble debris was clarified as described 17. A small aliquot was dissolved with SDS sample buffer for detection of total tyrosine phosphorylation. Antibodies against CLEC-2, PLCγ2, Syk, Btk, SLP-76, LAT, Vav1, or Vav3 were added to the resultant supernatant and incubated overnight. Where indicated, 10 μg of CLEC-2 YXXL-containing peptide plus avidin-Sepharose or GST-fusion protein-associated glutathione Sepharose were incubated with the lysates. […] The samples were lysed with 2× lysis buffer before and 5 min after stimulation. […] After removing insoluble debris by centrifugation, CLEC-2 was immunoprecipitated by addition of protein G. Precipitated proteins or whole cell lysates were separated by SDS-PAGE, electrotransferred, and western blotted by the indicated antibodies.

[5] = target: Syk (Homo sapiens, UniProt P43405); conditions: 10 μg peptide plus avidin-Sepharose, platelet lysates
Description: as §1

In the case of `Cc1ccc(-c2nn(C(C)(C)C)c3ncnc(N)c23)cc1` [PP1], the “block of tyrosine phosphorylation in whole cells and functional responses to rhodocytin” value [1] is reported as “block tyrosine phosphorylation in whole cells and all functional responses”.
With `CC(C)(C)n1nc(-c2ccc(Cl)cc2)c2c(N)ncnc21` [PP2] the “effect on rhodocytin-induced tyrosine phosphorylation of Syk, Btk, LAT, SLP-76, Vav1, Vav3, PLCγ2” value [2] was “abolished”, the “effect on precipitation of CLEC-2 by Syk fusion protein from rhodocytin-stimulated platelets” value [3] was “abolished” and the “block of tyrosine phosphorylation in whole cells and functional responses to rhodocytin” value [1] was “block tyrosine phosphorylation in whole cells and all functional responses”. The “block of rhodocytin-induced tyrosine phosphorylation of CLEC-2” value [4] was “block tyrosine phosphorylation of both the 32 and 40 kDa forms of CLEC-2”.
In the case of `Nc1ncnc2c1cnn2-c1ccccc1` [PP3], the “block of rhodocytin-induced tyrosine phosphorylation of CLEC-2” value [4] is reported as “not”.
For “Biotin-6-aminohexanoic acid (Ahx)-MQDEDGY(PO3H2)ITLNIK-OH”, the “interaction of Syk with CLEC-2 YXXL peptide” value [5] was “Syk could be precipitated”.
In the case of “Biotin-6-aminohexanoic acid (Ahx)-MQDEDGYITLNIK-OH [non-phosphorylated peptide]”, the “interaction of Syk with CLEC-2 YXXL peptide” value [5] is reported as “no interaction”.
Ser-Phe-Leu-Leu-Arg-Asn (SFLLRN) was tested, and the “tyrosine phosphorylation of CLEC-2” value [4] was “does not undergo tyrosine phosphorylation”.
For collagen, the “tyrosine phosphorylation of CLEC-2” value [4] was “does not undergo tyrosine phosphorylation”.

From patent publication US20090297508A1, “Compositions and methods for treating hemostasis disorders associated with clec-2 signal transduction” (UNIVERSITY OF YAMANASHI, priority 2005, published 2009)
